Laboratory results from PubChem BioAssay AID2060622 (Molecular Pharmacology Branch, DTP, NCI, 2025).

Test system: 242566-281-R-J2-PDC complex spheroid viability
Test: Anticancer human tumor 242566-281-R-J2-PDC patient-derived pancreatic carcinoma cell line growth inhibition [CLK]
Conditions: for IC50: curve of first compound; for viability, T/C: stronger effect = lower value; active = viability on the fitted dose curve at most 10% of control; inactive = the rest
Method in brief: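 Patient-derived tumor cells grown as complex spheroids with HUVEC endothelial cells and mesenchymal stem cells, treated with drug combinations. Concentrations descend in half-log steps from near clinical Cmax, or from 10 microM if Cmax unknown.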

[1] = second compound 0.0316 µM, first compound 0.0316 µM
[2] = second compound 0.0316 µM, first compound 0.1 µM
[3] = second compound 0.0316 µM, first compound 0.316 µM
[4] = second compound 0.0316 µM, first compound 1 µM
[5] = second compound 0.0316 µM, first compound 3.16 µM
[6] = second compound 0.0316 µM, first compound 10 µM
[7] = second compound 0.1 µM, first compound 0.0316 µM
[8] = second compound 0.1 µM, first compound 0.1 µM
[9] = second compound 0.1 µM, first compound 0.316 µM
[10] = second compound 0.1 µM, first compound 1 µM
[11] = second compound 0.1 µM, first compound 3.16 µM
[12] = second compound 0.1 µM, first compound 10 µM
[13] = second compound 0.316 µM, first compound 0.0316 µM
[14] = second compound 0.316 µM, first compound 0.1 µM
[15] = second compound 0.316 µM, first compound 0.316 µM
[16] = second compound 0.316 µM, first compound 1 µM
[17] = second compound 0.316 µM, first compound 3.16 µM
[18] = second compound 0.316 µM, first compound 10 µM
[19] = second compound 1 µM, first compound 0.0316 µM
[20] = second compound 1 µM, first compound 0.1 µM
[21] = second compound 1 µM, first compound 0.316 µM
[22] = second compound 1 µM, first compound 1 µM
[23] = second compound 1 µM, first compound 3.16 µM
[24] = second compound 1 µM, first compound 10 µM
[25] = second compound 3.16 µM, first compound 0.0316 µM
[26] = second compound 3.16 µM, first compound 0.1 µM
[27] = second compound 3.16 µM, first compound 0.316 µM
[28] = second compound 3.16 µM, first compound 1 µM
[29] = second compound 3.16 µM, first compound 3.16 µM
[30] = second compound 3.16 µM, first compound 10 µM
[31] = second compound 10 µM, first compound 0.0316 µM
[32] = second compound 10 µM, first compound 0.1 µM
[33] = second compound 10 µM, first compound 0.316 µM
[34] = second compound 10 µM, first compound 1 µM
[35] = second compound 10 µM, first compound 3.16 µM
[36] = second compound 10 µM, first compound 10 µM
[37] = second compound 0.0316 µM, first compound 0.00316 µM
[38] = second compound 0.0316 µM, first compound 0.01 µM
[39] = second compound 0.1 µM, first compound 0.00316 µM
[40] = second compound 0.1 µM, first compound 0.01 µM
[41] = second compound 0.316 µM, first compound 0.00316 µM
[42] = second compound 0.316 µM, first compound 0.01 µM
[43] = second compound 1 µM, first compound 0.00316 µM
[44] = second compound 1 µM, first compound 0.01 µM
[45] = second compound 3.16 µM, first compound 0.00316 µM
[46] = second compound 3.16 µM, first compound 0.01 µM
[47] = second compound 10 µM, first compound 0.00316 µM
[48] = second compound 10 µM, first compound 0.01 µM
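Also: spheroids exposed to compounds for 7 days before readout.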
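For viability, T/C in this document: 100% = DMSO vehicle control wells.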

CC(=O)O[C@H]1C(=O)[C@@]2(C)[C@H]([C@H](OC(=O)c3ccccc3)[C@]3(O)C[C@H](OC(=O)[C@H](O)[C@@H](NC(=O)c4ccccc4)c4ccccc4)C(C)=C1C3(C)C)[C@]1(OC(C)=O)CO[C@@H]1C[C@@H]2O + CNC(=O)c1ccc(Nc2nc(OC3CCCC3)c3c(-c4ccc5nc(C)oc5c4)c[nH]c3n2)c(OC)c1
> 10000 nM: IC50 (second compound 0.1 µM) | IC50 (second compound 0.316 µM) | IC50 (second compound 1 µM)
< 31.6 nM: IC50 (second compound 0.0316 µM) | IC50 (second compound 3.16 µM) | IC50 (second compound 10 µM)
inactive: viability, T/C [1] 61% | viability, T/C [2] 47.7% | viability, T/C [3] 42% | viability, T/C [4] 41.7% | viability, T/C [5] 46% | viability, T/C [6] 72.3% | viability, T/C [7] 84.7% | viability, T/C [8] 66.2% | viability, T/C [9] 53.2% | viability, T/C [10] 61.9% | viability, T/C [11] 70.7% | viability, T/C [12] 108% | viability, T/C [13] 91.7% | viability, T/C [14] 95% | viability, T/C [15] 86.2% | viability, T/C [16] 92% | viability, T/C [17] 115% | viability, T/C [18] 94.6% | viability, T/C [19] 62.3% | viability, T/C [20] 56.6% | viability, T/C [21] 52.2% | viability, T/C [22] 51.6% | viability, T/C [23] 50.7% | viability, T/C [24] 56.2% | viability, T/C [25] 51% | viability, T/C [26] 40.9% | viability, T/C [27] 43.1% | viability, T/C [28] 45.2% | viability, T/C [29] 46.3% | viability, T/C [30] 43% | viability, T/C [31] 43% | viability, T/C [32] 36.4% | viability, T/C [33] 43.7% | viability, T/C [34] 46.2% | viability, T/C [35] 43.4% | viability, T/C [36] 44.8%

CCc1c2c(nc3ccc(O)cc13)-c1cc3c(c(=O)n1C2)COC(=O)[C@]3(O)CC + CNC(=O)c1ccc(Nc2nc(OC3CCCC3)c3c(-c4ccc5nc(C)oc5c4)c[nH]c3n2)c(OC)c1
19.6 nM: IC50 (second compound 0.0316 µM)
< 3.16 nM: IC50 (second compound 1 µM) | IC50 (second compound 3.16 µM) | IC50 (second compound 10 µM)
5.05 nM: IC50 (second compound 0.316 µM)
inactive: viability, T/C [37] 93.6% | viability, T/C [38] 70.8% | viability, T/C [1] 35.2% | viability, T/C [2] 12.7% | viability, T/C [39] 76% | viability, T/C [40] 58.4% | viability, T/C [7] 17.6% | viability, T/C [41] 69.5% | viability, T/C [42] 21.2% | viability, T/C [43] 29.4% | viability, T/C [44] 9.85% | viability, T/C [45] 23% | viability, T/C [47] 18.5%
12.6 nM: IC50 (second compound 0.1 µM)
active: viability, T/C [3] 5.19% | viability, T/C [4] 1.82% | viability, T/C [8] 8.93% | viability, T/C [9] 5.07% | viability, T/C [10] 2.28% | viability, T/C [13] 8.24% | viability, T/C [14] 5.13% | viability, T/C [15] 3.51% | viability, T/C [16] 3.02% | viability, T/C [19] 4.94% | viability, T/C [20] 3.94% | viability, T/C [21] 3.17% | viability, T/C [22] 2.15% | viability, T/C [46] 7.75% | viability, T/C [25] 4.05% | viability, T/C [26] 3.95% | viability, T/C [27] 3.63% | viability, T/C [28] 1.54% | viability, T/C [48] 7.14% | viability, T/C [31] 4.31% | viability, T/C [32] 3.19% | viability, T/C [33] 3.1% | viability, T/C [34] 2.01%

Cn1ncnc1[C@H]1c2n[nH]c(=O)c3cc(F)cc(c23)N[C@@H]1c1ccc(F)cc1 + CNC(=O)c1ccc(Nc2nc(OC3CCCC3)c3c(-c4ccc5nc(C)oc5c4)c[nH]c3n2)c(OC)c1
inactive: viability, T/C (second compound 0.0316 µM, first compound 0.000316 µM) 126% | viability, T/C (second compound 0.0316 µM, first compound 0.001 µM) 105% | viability, T/C [37] 104% | viability, T/C [38] 127% | viability, T/C [1] 91.8% | viability, T/C [2] 98.8% | viability, T/C (second compound 0.1 µM, first compound 0.000316 µM) 100% | viability, T/C (second compound 0.1 µM, first compound 0.001 µM) 123% | viability, T/C [39] 84.1% | viability, T/C [40] 92.3% | viability, T/C [7] 98.5% | viability, T/C [8] 87.8% | viability, T/C (second compound 0.316 µM, first compound 0.000316 µM) 104% | viability, T/C (second compound 0.316 µM, first compound 0.001 µM) 86.3% | viability, T/C [41] 85.1% | viability, T/C [42] 89.9% | viability, T/C [13] 79.9% | viability, T/C [14] 76.5% | viability, T/C (second compound 1 µM, first compound 0.000316 µM) 70.9% | viability, T/C (second compound 1 µM, first compound 0.001 µM) 67.2% | viability, T/C [43] 62.5% | viability, T/C [44] 64.8% | viability, T/C [19] 56.1% | viability, T/C [20] 52.4% | viability, T/C (second compound 3.16 µM, first compound 0.000316 µM) 55.5% | viability, T/C (second compound 3.16 µM, first compound 0.001 µM) 52% | viability, T/C [45] 49.6% | viability, T/C [46] 47.6% | viability, T/C [25] 56.2% | viability, T/C [26] 47% | viability, T/C (second compound 10 µM, first compound 0.000316 µM) 50.2% | viability, T/C (second compound 10 µM, first compound 0.001 µM) 53.8% | viability, T/C [47] 45.2% | viability, T/C [48] 49.8% | viability, T/C [31] 50.3% | viability, T/C [32] 49.1%
31.1 nM: IC50 (second compound 3.16 µM)
2.02 nM: IC50 (second compound 10 µM)
> 100 nM: IC50 (second compound 0.0316 µM) | IC50 (second compound 0.1 µM) | IC50 (second compound 0.316 µM) | IC50 (second compound 1 µM)

Nc1ccn(C2OC(CO)C(O)C2(F)F)c(=O)n1 (stereo not given) + CNC(=O)c1ccc(Nc2nc(OC3CCCC3)c3c(-c4ccc5nc(C)oc5c4)c[nH]c3n2)c(OC)c1
115 nM: IC50 (second compound 0.1 µM)
84.9 nM: IC50 (second compound 0.0316 µM)
inactive: viability, T/C [1] 91.5% | viability, T/C [2] 42.9% | viability, T/C [3] 21.2% | viability, T/C [4] 12.3% | viability, T/C [7] 91.1% | viability, T/C [8] 53.3% | viability, T/C [9] 26.7% | viability, T/C [10] 15.5% | viability, T/C [11] 12.8% | viability, T/C [12] 10% | viability, T/C [13] 78% | viability, T/C [14] 40.5% | viability, T/C [15] 25.7% | viability, T/C [16] 14.8% | viability, T/C [17] 12.8% | viability, T/C [19] 62.8% | viability, T/C [20] 37.8% | viability, T/C [21] 19.3% | viability, T/C [22] 11.9% | viability, T/C [25] 50.1% | viability, T/C [26] 36.2% | viability, T/C [27] 16.3% | viability, T/C [31] 45.8% | viability, T/C [32] 34.7% | viability, T/C [33] 19.7% | viability, T/C [34] 9.76%
32.1 nM: IC50 (second compound 3.16 µM)
< 31.6 nM: IC50 (second compound 10 µM)
active: viability, T/C [5] 9.35% | viability, T/C [6] 9.34% | viability, T/C [18] 8.22% | viability, T/C [23] 9.22% | viability, T/C [24] 6.78% | viability, T/C [28] 10.7% | viability, T/C [29] 7.99% | viability, T/C [30] 6.76% | viability, T/C [35] 8.5% | viability, T/C [36] 7.44%
56.7 nM: IC50 (second compound 1 µM)
77.1 nM: IC50 (second compound 0.316 µM)

O=c1[nH]cc(F)c(=O)[nH]1 + CNC(=O)c1ccc(Nc2nc(OC3CCCC3)c3c(-c4ccc5nc(C)oc5c4)c[nH]c3n2)c(OC)c1
inactive: viability, T/C [1] 108% | viability, T/C [2] 116% | viability, T/C [3] 83.9% | viability, T/C [4] 91.4% | viability, T/C [5] 66.5% | viability, T/C [6] 53.5% | viability, T/C [7] 96% | viability, T/C [8] 96.5% | viability, T/C [9] 86.4% | viability, T/C [10] 71.7% | viability, T/C [11] 63.9% | viability, T/C [12] 52.2% | viability, T/C [13] 86.1% | viability, T/C [14] 66.9% | viability, T/C [15] 67.6% | viability, T/C [16] 74% | viability, T/C [17] 53.9% | viability, T/C [18] 41.3% | viability, T/C [19] 67% | viability, T/C [20] 61.2% | viability, T/C [21] 62.6% | viability, T/C [22] 56.9% | viability, T/C [23] 45% | viability, T/C [24] 25.5% | viability, T/C [25] 51.9% | viability, T/C [26] 50.7% | viability, T/C [27] 44.7% | viability, T/C [28] 46.2% | viability, T/C [29] 38.2% | viability, T/C [30] 22.5% | viability, T/C [31] 48% | viability, T/C [32] 50.2% | viability, T/C [33] 47.3% | viability, T/C [34] 44.2% | viability, T/C [35] 34.2% | viability, T/C [36] 23.2%
1940 nM: IC50 (second compound 1 µM)
5150 nM: IC50 (second compound 0.316 µM)
> 10000 nM: IC50 (second compound 0.0316 µM) | IC50 (second compound 0.1 µM)
< 31.6 nM: IC50 (second compound 10 µM)
77.6 nM: IC50 (second compound 3.16 µM)
